Source: PubChem BioAssay AID2060912 (Molecular Pharmacology Branch, DTP, NCI, 2025)

Tested on: HUVEC/MSC spheroids viability
Assay: Human HUVEC/MSC cell line growth inhibition [KRAS2];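 as to viability, T/C: percent of DMSO vehicle control luminescence so 100% = untreated viability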
Conditions: for IC50: curve of first compound; for viability, T/C: stronger effect = lower value; active = viability on the fitted dose curve at most 10% of control; inactive = the rest
Summary of the method: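 Growth/viability of tumour-free HUVEC–hMSC spheroids was measured after exposure to targeted small molecules and KRAS inhibitors, singly or in combination. Agents were diluted in half-log steps from Cmax-based top concentrations, capped at 10 microM without known Cmax.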

[1] = second compound 0.0316 µM, first compound 0.0316 µM
[2] = second compound 0.0316 µM, first compound 0.1 µM
[3] = second compound 0.1 µM, first compound 0.0316 µM
[4] = second compound 0.1 µM, first compound 0.1 µM
[5] = second compound 0.316 µM, first compound 0.0316 µM
[6] = second compound 0.316 µM, first compound 0.1 µM
[7] = second compound 1 µM, first compound 0.0316 µM
[8] = second compound 1 µM, first compound 0.1 µM
[9] = second compound 3.16 µM, first compound 0.0316 µM
[10] = second compound 3.16 µM, first compound 0.1 µM
[11] = second compound 10 µM, first compound 0.0316 µM
[12] = second compound 10 µM, first compound 0.1 µM
[13] = second compound 0.0316 µM, first compound 0.316 µM
[14] = second compound 0.0316 µM, first compound 1 µM
[15] = second compound 0.0316 µM, first compound 3.16 µM
[16] = second compound 0.0316 µM, first compound 10 µM
[17] = second compound 0.1 µM, first compound 0.316 µM
[18] = second compound 0.1 µM, first compound 1 µM
[19] = second compound 0.1 µM, first compound 3.16 µM
[20] = second compound 0.1 µM, first compound 10 µM
[21] = second compound 0.316 µM, first compound 0.316 µM
[22] = second compound 0.316 µM, first compound 1 µM
[23] = second compound 0.316 µM, first compound 3.16 µM
[24] = second compound 0.316 µM, first compound 10 µM
[25] = second compound 1 µM, first compound 0.316 µM
[26] = second compound 1 µM, first compound 1 µM
[27] = second compound 1 µM, first compound 3.16 µM
[28] = second compound 1 µM, first compound 10 µM
[29] = second compound 3.16 µM, first compound 0.316 µM
[30] = second compound 3.16 µM, first compound 1 µM
[31] = second compound 3.16 µM, first compound 3.16 µM
[32] = second compound 3.16 µM, first compound 10 µM
[33] = second compound 10 µM, first compound 0.316 µM
[34] = second compound 10 µM, first compound 1 µM
[35] = second compound 10 µM, first compound 3.16 µM
[36] = second compound 10 µM, first compound 10 µM

CN(C)C/C=C/C(=O)Nc1cc2c(Nc3ccc(F)c(Cl)c3)ncnc2cc1O[C@H]1CCOC1 + COc1cc2nc(C)nc(NC(C)c3cc(N)cc(C(F)(F)F)c3)c2cc1OC1CCOC1
> 100 nM: IC50 (second compound 0.0316 µM) | IC50 (second compound 0.1 µM) | IC50 (second compound 0.316 µM) | IC50 (second compound 1 µM) | IC50 (second compound 3.16 µM) | IC50 (second compound 10 µM)
inactive: viability, T/C (second compound 0.0316 µM, first compound 0.000316 µM) 98.6% | viability, T/C (second compound 0.0316 µM, first compound 0.001 µM) 110% | viability, T/C (second compound 0.0316 µM, first compound 0.00316 µM) 104% | viability, T/C (second compound 0.0316 µM, first compound 0.01 µM) 92.8% | viability, T/C [1] 86.8% | viability, T/C [2] 107% | viability, T/C (second compound 0.1 µM, first compound 0.000316 µM) 96.3% | viability, T/C (second compound 0.1 µM, first compound 0.001 µM) 90.2% | viability, T/C (second compound 0.1 µM, first compound 0.00316 µM) 96.8% | viability, T/C (second compound 0.1 µM, first compound 0.01 µM) 73.7% | viability, T/C [3] 90.5% | viability, T/C [4] 85.1% | viability, T/C (second compound 0.316 µM, first compound 0.000316 µM) 132% | viability, T/C (second compound 0.316 µM, first compound 0.001 µM) 102% | viability, T/C (second compound 0.316 µM, first compound 0.00316 µM) 86.9% | viability, T/C (second compound 0.316 µM, first compound 0.01 µM) 99.3% | viability, T/C [5] 74.8% | viability, T/C [6] 97.3% | viability, T/C (second compound 1 µM, first compound 0.000316 µM) 112% | viability, T/C (second compound 1 µM, first compound 0.001 µM) 104% | viability, T/C (second compound 1 µM, first compound 0.00316 µM) 97.6% | viability, T/C (second compound 1 µM, first compound 0.01 µM) 84% | viability, T/C [7] 91.6% | viability, T/C [8] 104% | viability, T/C (second compound 3.16 µM, first compound 0.000316 µM) 91.6% | viability, T/C (second compound 3.16 µM, first compound 0.001 µM) 99.1% | viability, T/C (second compound 3.16 µM, first compound 0.00316 µM) 76.3% | viability, T/C (second compound 3.16 µM, first compound 0.01 µM) 95.8% | viability, T/C [9] 75.3% | viability, T/C [10] 83.7% | viability, T/C (second compound 10 µM, first compound 0.000316 µM) 60.7% | viability, T/C (second compound 10 µM, first compound 0.001 µM) 85.5% | viability, T/C (second compound 10 µM, first compound 0.00316 µM) 80% | viability, T/C (second compound 10 µM, first compound 0.01 µM) 59.6% | viability, T/C [11] 74.4% | viability, T/C [12] 74.4%

COC(=O)c1ccc2c(C(=Nc3ccc(N(C)C(=O)CN4CCN(C)CC4)cc3)c3ccccc3)c(O)[nH]c2c1 + COc1cc2nc(C)nc(NC(C)c3cc(N)cc(C(F)(F)F)c3)c2cc1OC1CCOC1
active: viability, T/C [16] 0.31% | viability, T/C [20] 0.32% | viability, T/C [24] 0.35% | viability, T/C [28] 0.36% | viability, T/C [32] 0.29% | viability, T/C [35] 0.52% | viability, T/C [36] 0.28%
inactive: viability, T/C [1] 77.5% | viability, T/C [2] 78.8% | viability, T/C [13] 72.5% | viability, T/C [14] 41% | viability, T/C [15] 29.7% | viability, T/C [3] 78.7% | viability, T/C [4] 89.2% | viability, T/C [17] 67.3% | viability, T/C [18] 40.2% | viability, T/C [19] 24.7% | viability, T/C [5] 72.2% | viability, T/C [6] 83.1% | viability, T/C [21] 52.7% | viability, T/C [22] 39.1% | viability, T/C [23] 22% | viability, T/C [7] 80.1% | viability, T/C [8] 83.4% | viability, T/C [25] 73% | viability, T/C [26] 38.6% | viability, T/C [27] 19.2% | viability, T/C [9] 59.8% | viability, T/C [10] 68.5% | viability, T/C [29] 62.5% | viability, T/C [30] 40.4% | viability, T/C [31] 17.2% | viability, T/C [11] 63.2% | viability, T/C [12] 68% | viability, T/C [33] 62.7% | viability, T/C [34] 39.1%
551 nM: IC50 (second compound 0.316 µM)
619 nM: IC50 (second compound 3.16 µM)
604 nM: IC50 (second compound 10 µM)
739 nM: IC50 (second compound 1 µM)
783 nM: IC50 (second compound 0.1 µM)
949 nM: IC50 (second compound 0.0316 µM)

O=C(c1cc(Cc2n[nH]c(=O)c3ccccc23)ccc1F)N1CCN(C(=O)C2CC2)CC1 + COc1cc2nc(C)nc(NC(C)c3cc(N)cc(C(F)(F)F)c3)c2cc1OC1CCOC1
> 10000 nM: IC50 (second compound 0.0316 µM) | IC50 (second compound 0.1 µM) | IC50 (second compound 0.316 µM) | IC50 (second compound 1 µM) | IC50 (second compound 3.16 µM) | IC50 (second compound 10 µM)
inactive: viability, T/C [1] 104% | viability, T/C [2] 108% | viability, T/C [13] 102% | viability, T/C [14] 94.2% | viability, T/C [15] 89.7% | viability, T/C [16] 99.3% | viability, T/C [3] 108% | viability, T/C [4] 101% | viability, T/C [17] 90.5% | viability, T/C [18] 89.5% | viability, T/C [19] 90.3% | viability, T/C [20] 83.9% | viability, T/C [5] 93.8% | viability, T/C [6] 92.9% | viability, T/C [21] 101% | viability, T/C [22] 93.8% | viability, T/C [23] 101% | viability, T/C [24] 115% | viability, T/C [7] 86.5% | viability, T/C [8] 115% | viability, T/C [25] 93.8% | viability, T/C [26] 88.8% | viability, T/C [27] 89.5% | viability, T/C [28] 93.2% | viability, T/C [9] 75% | viability, T/C [10] 101% | viability, T/C [29] 93% | viability, T/C [30] 82.2% | viability, T/C [31] 84.8% | viability, T/C [32] 101% | viability, T/C [11] 72.3% | viability, T/C [12] 76.5% | viability, T/C [33] 79.4% | viability, T/C [34] 68.2% | viability, T/C [35] 77.2% | viability, T/C [36] 63.2%
